Data published in PubChem BioAssay (NCI).
“And” between values parts separate entries of the source, which are not always exact repeats. Equal entries are not always repeated.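 Test compounds were applied to cells in 96-well plates for 48 hours at 5 doses. GI50: concentration for 50% inhibition of growth. TGI marks complete inhibition of growth.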 *1 amine or outer side, *2 acyl side, *3 side chain or, on linkers, in order; H or OH if unused. Where a SMILES comes first, the peptide text is derived from it. [ ]: non-standard residue; d: D form. The star is where a group is joined. X11 = C/C=C/CC(C)C(O)[C@H](N[*:1])C(=O)[*:2]; Leu(ol) = CC(C)C[C@H](N)CO; Iva = CC[C@](C)(N)C(=O)O; Octanoyl = CCCCCCCC(=O)*; Aib = CC(C)(N)C(=O)O

system: MDA-MB-468 breast; assay: NCI anticancer screen, dose series, 48 h

| SMILES | GI50 | TGI |
| --- | --- | --- |
| O=C(c1ccccc1)C(CN1CCCCC1)c1ccccc1 (stereo not given) | 0.536 µM | 1.9 µM |
| O=C(c1ccccc1)C1OC1c1ccc([N+](=O)[O-])cc1 (stereo not given) | 2.28 µM | 6.79 µM |
| C/C=C/CC(C)C(O)[C@H](NC(=O)[C@@H]1CCCN1C(=O)C(C)(C)NC(=O)CCCCCCC)C(=O)N[C@@](C)(CC)C(=O)N[C@@H](CCC(N)=O)C(=O)N[C@H](CCC(N)=O)C(=O)NC(C)(C)C(=O)NC(C)(C)C(=O)N[C@@H](CCC(N)=O)C(=O)N[C@H](CC(C)C)C(=O)N[C@H](CO)CC(C)C (stereo partly drawn) (Octanoyl-[Aib]P[X11][Iva]Q[dQ][Aib][Aib]Q[dL][Leu(ol)]) | 1.68 µM | 3.35 µM |
| [N-]=[N+]=NCCCCCC(=O)OC(C(=O)c1ccccc1)c1cccc(OCC(=O)NCCOCCOCCNC(=O)CCCC[C@@H]2SC[C@@H]3NC(=O)N[C@@H]32)c1 (stereo not given in full) | 27.5 µM | > 100 µM |
| CC(C)=CCC/C(C)=C/CC/C(C)=C/CSc1ccccc1C(=O)O | 27.5 µM | > 90 µM |
| O=Nc1ccc(NO)c2ccccc12 | 13.9 µM | 44.4 µM |
| O=c1cc(-c2cccc3c2Sc2ccccc2S3)oc(N2CCOCC2)c1 | 2.8 µM | 14.5 µM |
| Cc1nnc(-c2cccc(-c3ccc(C(=O)NCC4CC4)cc3)c2)o1 | > 25 µM | > 25 µM |
| CNC(=O)c1ccccc1Nc1nc(Nc2cc(OC)c(OC)c(OC)c2)ncc1Br | 0.0782 µM | 0.625 µM |
| NCCOCCOCCNc1nc(-c2ccccc2)nc(N2CCN(c3ccccn3)CC2)n1 | 7.23 µM | 20.6 µM |
| C=CC(=O)Nc1cc(C)ccc1Nc1nc(Nc2cc(OC)ncc2C)ncc1C(F)(F)F | 1.86 µM | 6.06 µM |
| COCc1cc(C(=O)Nc2cc([C@H]3CC[C@@H](OC(=O)NC(C)C)C3)[nH]n2)n(C)n1 | 13.5 µM | 35 µM |
| O=C(O)C1(C(=O)O)CCC1.[NH2-].[NH2-].[Pt+2] | 43.7 µM | > 216 µM |
| COc1cc(NCCCN=C(N)NC(N)=NC(C)C)c2ncccc2c1 | 0.112 µM | 0.501 µM |
| CC(C)=CCC[C@](C)(O)[C@H]1CC[C@]2(C)[C@@H]1CC[C@@H]1[C@@]3(C)CC/C(=N/O)C(C)(C)[C@@H]3CC[C@]12C | 8.7 µM | 71.3 µM |
| C=C1CCC2C3(C)COC(c4ccccc4)OC3CCC2(C)C1/C=C/C1=CCOC1=O (stereo not given) | 2.49 µM | 6.41 µM |
| COc1cccc(NC(=O)c2sc3nc(C)c(C(O)c4ccccc4)cc3c2N)c1 (stereo not given) | 0.27 µM | 30.2 µM |
| Oc1ccc(-c2nc3ccccc3s2)cc1CN(Cc1ccccn1)Cc1ccccn1 | 2.48 µM | 17 µM |
| COc1ccc2c(=O)cc(C(Cl)(Cl)Cl)oc2c1 | 0.383 µM | 14.4 µM |
| O=C(CCC(=O)N1CCOCC1)OCCCCCCSc1ccc([N+](=O)[O-])c2nonc12 | 1.11 µM | 2.9 µM |
| CS(=O)(=O)CCc1cccc(C(=O)c2cnn(-c3ccc(F)cc3)c2N)c1 | > 25 µM | > 25 µM |
| CN(Cc1ccccc1)c1ccc(CO)c(Cl)c1 | 0.0795 µM | 0.248 µM |

| SMILES | GI50 | TGI |
| --- | --- | --- |
| C=CCN(C)S(=O)(=O)/N=C1\NC(=O)NC1=C(Cl)Cl | 0.578 µM | 15.6 µM |
| CCN(CC)CC(O)CNc1c2ccc([N+](=O)[O-])cc2nc2cc(OC)c(OC)cc12 (stereo not given) | 0.172 µM | 0.475 µM |
| C[n+]1c2cc(N)ccc2cc2ccc(N)cc21 | 342 nM [middle of 4 runs] |  |
| CC(=O)c1c(C)[nH]c(-c2nc3ccc(N4CCN(C)CC4)cc3[nH]2)c1-c1ccc(N(C)C)cc1 | 0.2 µM | 2.89 µM |
| O=C(COc1cc(O)c2c(=O)cc(-c3ccccc3)oc2c1)Nc1ccccc1C(F)(F)F | 4.95 µM | 35.8 µM |
| Nc1c(C(=O)Nc2cccc(F)c2)sc2nc3c(cc12)C(=O)CCC3 | 0.159 µM | > 100 µM |
| O=C1C=CC(=Nc2cc(Br)c(O)c(Br)c2)C=C1 | 10.5 µM | 30.5 µM |
| Cc1nc2ccccc2c(/C=C/c2ccc(Cl)cc2)c1C(=O)/C=C/c1ccc(C(F)(F)F)cc1 | 1.3 µM | 2.93 µM |
| CCN(CC)CCCNCc1cc(-c2ccccc2)nc2ccccc12 | 14.8 µM | 30.8 µM |
| Cc1cc(N2CCOCC2)nc(N[C@@H]2CCC[C@H](Nc3ccnc4cc(Cl)ccc34)C2)n1 | 1.76 µM | 4.04 µM |
| c1ccc(CN2COc3c(ccc4c3OCN(Cc3ccccc3)C4)C2)cc1 | 0.796 µM | 5.2 µM |
| O=C(Nc1ccncc1)C(=O)c1cn(S(=O)(=O)c2ccc(Cl)cc2)c2ccccc12 | 0.746 µM | 9.11 µM |
| CC(C)(C)c1cc(-n2c(-c3ccc(Cl)cc3)nc3cc(C(=O)Nc4ccc(Cl)cc4)ccc32)n[nH]1 | 4.88 µM | > 100 µM |
| O=C(Nc1ccc(-n2ccc3c(NC(=O)c4ccccc4)ncnc32)cc1)Nc1ccc(Cl)c(Cl)c1 | 1.92 µM | 8.04 µM |
| COC(=O)c1cc(O)c2cc3c(cc2c1-c1cc(OC)c(OC)c(OC)c1)OCO3 | 0.411 µM | 44.7 µM |
| Cc1nc(-c2cn3c(n2)-c2ccc(-c4cnn(C(C)(C)C(N)=O)c4)cc2OCC3)n(C(C)C)n1 | 0.134 µM and 0.0499 µM | 1.55 µM and 0.822 µM |
| CC(=O)C1=C(O)C=C2Oc3c(C(=O)/C=C/c4c(Cl)cccc4Cl)c(O)c(C)c(O)c3[C@]2(C)C1=O | 1.19 µM | 4.89 µM |
| COc1cc(-c2cc(O)c(-c3ccc4ccccc4n3)c(=O)[nH]2)cc(OC)c1OC | 3.38 µM | 26 µM |
| O=C(Cc1ccc(F)c(F)c1)Nc1cc(C2(C(F)(F)F)CC2)nn1Cc1ccccc1 | 2.67 µM | 9.41 µM |
| O=C(NCCCO)c1cc(Cl)ccc1O | 1.19 µM | 7.18 µM |
| COc1ccc([C@@H]2C(=O)N(c3cc(OC)c(OC)c(OC)c3)[C@H]2c2ccc(OC)c(O)c2)cc1 | 0.0245 µM | 0.0671 µM |
